The values that follow come from patent US9278131B2, “Process for lowering the viscosity of highly concentrated protein solutions” (ADOCIA, priority 2012, dated 2016).

The target in one data set is T1, abatacept (Homo sapiens, UniProt P16410).
T1 construct: a fragment of a protein of interest which is the extracellular domain of the receptor of protein CTLA-4; purchased Bristol-Meyers Squibb (Orencia)
Kind of data set: viscosity of highly concentrated abatacept (fusion protein) solution, cone/plate rheometer. The conditions noted are these: Table I; abatacept 230 mg/mL, 150 mM additive, pH 7.5 ± 0.5, 21° C. The data set is classed as physicochemical. From the text: (§1) For this example, three solutions of monoclonal antibodies, i.e. a solution of bevacizumab (an IgG1 sold under the name Avastin® by Genentech/Hoffmann La Roche), a solution of infliximab (an IgG1/K sold under the name Remicade® by Schering-Plough), a solution of rituximab (an IgG1/K sold under the name mAbThera® by Hoffmann La Roche) and a solution of fusion protein, i.e. a solution of abatacept (IgG1-CTLA4 sold under the name Orencia® by Bristol-Meyers Squibb), were concentrated by ultrafiltration on Amicon® Ultra-15 filtration units with a cutoff threshold of 50 kDa.
(§2) The protein concentration of each concentrated solution was measured by UV spectroscopy (absorbance at 280 nm) after gravimetric dilution of the samples.
(§3) The effect of RVs 2 and 9 on the viscosity of these four highly concentrated therapeutic protein solutions was then evaluated comparatively with that of Arg and NaCl. To do this, the viscosity was measured using a cone/plate rheometer (TA Instrument, AR 2000 Ex, geometry of diameter 20 mm, cone of 0.5131°, solvent trap filled with water) at a temperature of 21° C. and in flow sweep mode with shear rates of between 5000 and 50 s^−1 (3 points per decade—steady-state sensing). […]

Data set [1] has as its system infliximab. In words: viscosity of highly concentrated infliximab formulation, cone/plate rheometer at 25° C. (example 7). The format is physicochemical. Particulars: Table VII; infliximab 125 mg/mL, 150 mM additive, pH 7.2 ± 0.2, 25° C. The method, then: For this example, two monoclonal antibody formulations, i.e. infliximab and trastuzumab (an IgG1/κ sold under the name Herceptin® by Genentech) were concentrated by ultrafiltration on Amicon® Ultra-50 centrifugal filtration units with a cutoff threshold of 50 kDa. The protein concentration of each concentrated solution was measured by UV spectroscopy (absorbance at 280 nm) after gravimetric dilution of the samples. […]
The effect of RVs 2 and 11 on the viscosity of these two highly concentrated therapeutic protein formulations was then evaluated comparatively to that of Arg and NaCl. To do this, the viscosity was measured using a cone/plate rheometer (TA Instrument, AR 2000 Ex, geometry of diameter 20 mm, cone of 0.5131°, solvent trap filled with water) at a temperature of 25° C. and in flow sweep mode with shear rates of between 5000 and 50 s^−1 (3 points per decade—steady-state sensing).
For this example, the “protein+RV” formulations were prepared by mixing a solution of RV at about 1 M obtained in example 1 with one of the concentrated infliximab and trastuzumab formulations prepared previously and the corresponding buffer so as to reach a final RV concentration of 150 mM and a final protein concentration of 125 mg/mL for infliximab and 200 mg/mL for trastuzumab. […]

Data set [2] has as its system infliximab. Kind of data set: viscosity of highly concentrated infliximab solution, cone/plate rheometer at 21° C. The format is physicochemical. Particulars: for % viscosity reduction relative to the control infliximab solution: Table V.
Text: as §1, §2
(§4) The effect of RVs 2 and 9 on the viscosity of these four highly concentrated therapeutic protein solutions was then evaluated comparatively with that of Arg and NaCl.
(§5) The samples thus prepared were stored at room temperature and were analyzed using the rheometer within 24 hours of their preparation.
(§6) The pH of these formulations is the same as that of the commercial formulation of the corresponding therapeutic protein.
(§7) In this study, the highly concentrated infliximab and rituximab solutions used are the same as those which were prepared and used previously. […] The pH of these formulations is the same as that of the corresponding therapeutic protein formulation, i.e. 7.2±0.2 for infliximab, and 6.5±0.2 for rituximab.
The highly concentrated infliximab solution used is the same as that which was prepared and used previously. The “protein+RV” formulations were prepared in the presence of concentrations increasing from 0 to 200 mM of Arg or RV 9. The pH of these formulations is the same as that of the commercial infliximab formulation, i.e. 7.2±0.2.
The highly concentrated infliximab solution used is the same as that which was prepared and used previously.
The pH of these formulations is the same as that of the commercial infliximab formulation, i.e. 7.2±0.2.
The highly concentrated infliximab solution used was prepared in the same manner as that used previously. […] The pH of these formulations is the same as that of the commercial infliximab formulation, i.e. 7.2±0.2.

For data set [3], the system named is trastuzumab. Kind of data set: viscosity of highly concentrated trastuzumab formulation, cone/plate rheometer at 25° C. (example 7). The format is physicochemical. The conditions noted are these: Table VII; trastuzumab 200 mg/mL, 150 mM additive, pH 6 ± 0.2, 25° C. The method, then: For this example, two monoclonal antibody formulations, i.e. infliximab and trastuzumab (an IgG1/κ sold under the name Herceptin® by Genentech) were concentrated by ultrafiltration on Amicon® Ultra-50 centrifugal filtration units with a cutoff threshold of 50 kDa. The protein concentration of each concentrated solution was measured by UV spectroscopy (absorbance at 280 nm) after gravimetric dilution of the samples.
Once reconstituted, the infliximab and trastuzumab formulations were concentrated, respectively, to 212 mg/mL and 277 mg/mL.
The effect of RVs 2 and 11 on the viscosity of these two highly concentrated therapeutic protein formulations was then evaluated comparatively to that of Arg and NaCl. To do this, the viscosity was measured using a cone/plate rheometer (TA Instrument, AR 2000 Ex, geometry of diameter 20 mm, cone of 0.5131°, solvent trap filled with water) at a temperature of 25° C. and in flow sweep mode with shear rates of between 5000 and 50 s^−1 (3 points per decade—steady-state sensing). […]

For another data set, the system named is bevacizumab. Kind of data set: viscosity of highly concentrated bevacizumab solution, cone/plate rheometer. The format is physicochemical. The conditions noted are these: Table I; bevacizumab 250 mg/mL, 150 mM additive, pH 6.2 ± 0.2, 21° C.
Text: as §1
The protein concentration of each concentrated solution was measured by UV spectroscopy (absorbance at 280 nm) after gravimetric dilution of the samples. […]
as §3

The next data set deals with rituximab. Kind of data set: viscosity of highly concentrated rituximab solution, cone/plate rheometer. The data set is classed as physicochemical. Particulars: rituximab 196 mg/mL, 150 mM additive.
Text: as §1, §2
The solutions of rituximab (10 mg/mL) and of bevacizumab (25 mg/mL) were concentrated, respectively, to 320 mg/mL and 240 mg/mL.
as §4, §5, §6, §7

For data set [4], the system named is trastuzumab. Particulars: phenylalanine 0.2%, i.e. 12 mM; trastuzumab 300 mg/mL; WO 2013/063 510; cited from earlier work.
The subject of another data set is anti-IL5 antibody. Particulars: tyrosine 0.004% w/v, i.e. 0.2 mM; WO 2012/141 978; cited from earlier work.
Setting [5] is: Table II, infliximab 107 mg/mL, 150 mM additive, pH 7.2 ± 0.2.

T1 sequence (P16410 with tags, fused parts or gaps limits assumed): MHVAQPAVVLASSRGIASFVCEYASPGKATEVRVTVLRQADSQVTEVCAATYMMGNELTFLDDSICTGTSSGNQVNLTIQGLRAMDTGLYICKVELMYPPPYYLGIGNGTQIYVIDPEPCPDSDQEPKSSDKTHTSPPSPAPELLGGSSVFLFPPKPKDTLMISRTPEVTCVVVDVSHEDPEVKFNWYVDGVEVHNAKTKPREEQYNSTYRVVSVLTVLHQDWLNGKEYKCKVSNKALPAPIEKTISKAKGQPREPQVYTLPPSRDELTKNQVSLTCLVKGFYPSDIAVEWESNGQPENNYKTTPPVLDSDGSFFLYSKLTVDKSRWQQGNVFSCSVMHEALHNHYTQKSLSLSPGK

For `[Cl-].[Na+]` [NaCl, sodium chloride], the “% viscosity reduction relative to the control “protein alone”” value at abatacept is 7%; in the data set with infliximab [2] (Table I, infliximab 107 mg/mL, 150 mM additive, pH 7.2 ± 0.2, 21° C.), “≦0%”; with infliximab [2] (setting [5]), “≦0%”; in the data set on bevacizumab, “≦0%”; with rituximab (Table I, pH 6.5 ± 0.2, 21° C.) it was 21%; with rituximab (Table III, pH 6.5 ± 0.2) it was 21%. The “% of viscosity reduction relative to the control “protein alone”” value with infliximab [1] was “≦0%”; in the data set on trastuzumab [3] it was 38%.
Take `Cl.NC(Cc1ccccc1)C(=O)NCCO` (stereo not drawn) [RV 2, (2S-2-amino(3-phenylpropanoyl)amino)-ethanol hydrochloride salt]: the “% viscosity reduction relative to the control “protein alone”” value in the data set on infliximab [2] (setting [5]) is listed as 56%; in the data set on rituximab (Table III, pH 6.5 ± 0.2) it was 43%.
The like results for `Cl.N[C@H](CO)Cc1ccccc1` [RV 4, (S)-(−)-2-amino-3-phenyl-1-propanol hydrochloride salt] were, in that order, 36% and 37%.
On the same counts, the results for `C[N+](C)(C)Cc1ccccc1.[Cl-]` [RV 5, benzyltrimethylammonium chloride] are 49% and 38%.
Regarding `Cl.NCCc1ccccc1` [RV 6, 2-phenylethylamine hydrochloride salt], the “% viscosity reduction relative to the control “protein alone”” value in the data set on infliximab [2] (setting [5]) is on record as 38%; in the data set with rituximab (Table III, pH 6.5 ± 0.2), 39%.
Regarding `Cl.NCCc1ccc(O)c(O)c1` [RV 7, dopamine hydrochloride salt], the “% viscosity reduction relative to the control “protein alone”” value was 38% with infliximab [2] (setting [5]) and 39% with rituximab (Table III, pH 6.5 ± 0.2).
On the same counts, the results for `Cl.NCCOc1ccccc1` [RV 8, 2-phenoxyethylamine hydrochloride salt] are 46% and 52%.
As for `Cl.NC(=O)[C@@H](N)Cc1ccccc1` [RV 9, L-phenylalaninamide hydrochloride salt], the “% viscosity reduction relative to the control “protein alone”” value in the data set with infliximab [2] (setting [5]) turned out to be 52%; in the data set on infliximab [2] (Table IV, infliximab 107 mg/mL, additive 25 mM, pH 7.2 ± 0.2) it was 19%; with infliximab [2] (Table IV, infliximab 107 mg/mL, additive 50 mM, pH 7.2 ± 0.2) it was 31%; in the data set with infliximab [2] (Table IV, infliximab 107 mg/mL, additive 100 mM, pH 7.2 ± 0.2), 41%; with infliximab [2] (Table IV, infliximab 107 mg/mL, additive 150 mM, pH 7.2 ± 0.2), 44%; with infliximab [2] (Table IV, infliximab 107 mg/mL, additive 200 mM, pH 7.2 ± 0.2), 56%. Moreover, in the data set with rituximab (Table III, pH 6.5 ± 0.2), the “% viscosity reduction relative to the control “protein alone”” value was found to be 48%. Further, the “% viscosity reduction relative to the control infliximab solution” value in the data set with infliximab [2] (infliximab 80 mg/mL, additive at 150 mM, pH 7.2 ± 0.2) is given as 50%; in the data set on infliximab [2] (infliximab 90 mg/mL, additive at 150 mM, pH 7.2 ± 0.2), 52%; in the data set with infliximab [2] (infliximab 100 mg/mL, additive at 150 mM, pH 7.2 ± 0.2), 55%; in the data set with infliximab [2] (infliximab 110 mg/mL, additive at 150 mM, pH 7.2 ± 0.2) it was 49%. In addition, the “viscosity lowering on average, irrespective of the infliximab concentration” value in the data set with infliximab [2] (average over infliximab 80-110 mg/mL, additive at 150 mM) was “about 52%”. Also, the “concentration sufficient to obtain a viscosity reduction equivalent to that obtained using Arg at 150 mM” value in the data set with infliximab [2] (infliximab 107 mg/mL) was 50000 µM. In addition, the “efficiency in viscosity reduction relative to Arg” value in the data set on infliximab [2] (infliximab 107 mg/mL, at 100 mM) was “about 4 times”; with infliximab [2] (infliximab 107 mg/mL, at 150 mM) it was “twice as efficient as Arg”.
As to `N[C@@H](Cc1ccccc1)C(=O)O` [phenylalanine], the “increase of the viscosity of a trastuzumab formulation” value in the data set on trastuzumab [4] was 83%.
`N[C@@H](Cc1ccc(O)cc1)C(=O)O` [tyrosine]: in the data set with anti-IL5 antibody, the “increase of the viscosity of the anti-IL5 antibody solution” value was 44%.
